Measured values reported in publication PMC7913291, “Synthesis and Anti-Hepatocarcinoma Effect of Amino Acid Derivatives of Pyxinol and Ocotillol” (Molecules, 2021).
Read-outs that look alike come from different tables or passages of the source.

Tests used:
H22 transplanted tumor = assay: Antitumor activity in H22 tumor-bearing mice (tumor weight, volume, inhibition rate, tumor histology); format: in vivo, Kunming mice
Experimental: Hepatocellular carcinoma cell line (H22) was purchased from the Cell Bank of Type Culture Collection Committee of Chinese Academy of Sciences (Shanghai, China), and cultured in Dulbecco's modified eagle medium supplemented with 10% fetal calf serum and then cultured at 37 °C in 5% CO2. […] (Changchun, China). All the mice, given food and water ad libitum, were raised in temperature and humidity controlled (23 ± 2 °C, 50 ± 10% humidity) environment under a 12 h light/dark cycle. The mice were acclimatized for at least 1 week before use. The animal experiments were performed in accordance with the guidelines for the Care and Use of Laboratory Animals and approved by the ethics committee of School of Pharmaceutical Sciences, Jilin University, China. H22 cells, resuspended in normal saline with final concentration of 5 × 10^6 cells/mL, were injected into the abdominal cavity of mice under aseptic conditions. After 1 week, ascites tumor cells were extracted and dispersed with physiological saline to a concentration of 1 × 10^7 cells/mL.

VEGF = assay: Serum VEGF level in H22 tumor-bearing mice; format: in vivo, Kunming mice; conditions: mean ± SD
Experimental: (§1) Cyclophosphamide (CTX), used as the positive drug, was purchased from Sigma (St. Lousis, MO, USA. Detecting kits for IL-2, TNF-α, VEGF, AST, ALT, CRE and BUN were purchased from Nanjing Jiancheng Biotechnology Co. (Nanjing, China).
(§2) 24 h after the last administration, the whole blood was collected from the orbit. Serum was obtained from whole blood by centrifugation (3500 rpm, 15 min, 4 °C) and stored at −20 °C. The levels of IL-2, TNF-α, VEGF, AST, ALT, BUN and CRE in serum were determined in accordance with the procedures described in commercial kit instructions.

HepG2 cells = assay: Cytotoxic activity on HepG2 cells (CCK-8 assay); format: cell-based; conditions: Homo sapiens, read-out: IC50 over HepG2 cells
Experimental: Human hepatocellular liver carcinoma cell line (HepG2) were obtained from Institute of Biochemistry and Cell Biology, Academy of Science (Shanghai, China) and were authenticated using the STR profiling method. HepG2 cells were cultured in MDEM (Gibco, Waltham, MA, USA) supplemented with 10% fetal bovine serum (FBS) and 1% penicillin-streptomycin bubbled with 5% CO2-enriched air at a temperature of 37 °C (Thermo Scientific, Waltham, MA, USA). The cytotoxic effect of compounds on HepG2 cells was assessed by using CCK-8 method. Briefly, HepG2 cells were cultured in 96-well plates at a density of 5 × 10^3 cells per well for 24 h. […] Three replicates were performed. The relative cell viability was expressed as percentage relative to the untreated cells. The inhibition ratio was calculated. The IC50 values were calculated using Logistic regression from three independent tests.

[1] = Hepatic and renal function (serum ALT, AST, CRE, BUN) in H22 tumor-bearing mice
Experimental: as §1, §2

IL-2 = assay: Serum IL-2 level in H22 tumor-bearing mice; format: in vivo, Kunming mice; conditions: mean ± SD
Experimental: as §1, §2

TNF-α = assay: Serum TNF-α level in H22 tumor-bearing mice; format: in vivo, Kunming mice; conditions: mean ± SD
Experimental: as §1, §2

[2] = rat, in vivo; cited from earlier work
[3] = cited from earlier work
[4] = Histopathological examination of liver and kidney (H&E staining); conditions: H22 tumor-bearing mice; CTX 20 mg/kg
Experimental: (§3) Mice were then killed by cervical dislocation after blood collected. The tumor, liver and kidney were rapidly separated, weighted and dissected for histopathological examination.
The tissue of tumor, liver and kidney from each mouse was quickly fixed in 10% neutral-buffered formalin for histopathology. The H&E staining of H22 solid tumor, liver and kidney tissue were embedded in paraffin and sectioned into sections with a thickness of 5 µm which were conducted following the manufacturer’s instructions in respective kit. Tumor, liver and kidney tissue sections were observed by light microscopy (Leica DM750, Solms, Germany) and recorded by photography (×400).

[5] = Body weight and organ indexes in H22 tumor-bearing mice
Experimental: Before administration every day, the tumor size and body weight were measured. When the tumor was larger than 20 mm in diameter, animals were euthanized according to the IACUC proposals.
as §3
The liver and kidney indexes were calculated as follows: organ index (mg/g) =average weight of organ/average body weight.

[6] = 25 mg/kg intragastrically once a day for 14 days
[7] = 50 mg/kg intragastrically once a day for 14 days
[8] = HepG2, CCK-8, 48 h, mean of three experiments ±SD
[9] = 20 mg/kg intragastrically once a day for 14 days
[10] = serum, H22 tumor-bearing mice, 20 mg/kg

What does the source list for `CC(C)(O)[C@H]1CC[C@@](C)(C2CC[C@]3(C)C2[C@H](O)CC2[C@@]4(C)CC[C@H](OC(=O)C5CCCN5)C(C)(C)C4CC[C@]23C)O1` (stereo partly drawn) [2e, (20S, 24R)-Epoxy-3β-O-(L-prolyl)-dammarane-12β, 25-diol]?
Inhibitory Rate (tumor inhibition rate, TIR) (H22 transplanted tumor; [6]): 16.20%; Tumor Weight (H22 transplanted tumor; [6]): 1.35 ± 0.26 g; Inhibitory Rate (tumor inhibition rate, TIR) (H22 transplanted tumor; [7]): 24.76%; Tumor Weight (H22 transplanted tumor; [7]): 1.21 ± 0.34 g; Tumor Weight (H22 transplanted tumor; 100 mg/kg intragastrically once a day for 14 days): 1.04 ± 0.23 g; Inhibitory Rate (tumor inhibition rate, TIR) (H22 transplanted tumor; 100 mg/kg intragastrically once a day for 14 days, listed as Compound 2e, 100 mg/kg): 35.32%; Inhibitory Rate (tumor inhibition rate, TIR) (H22 transplanted tumor; 100 mg/kg intragastrically once a day for 14 days, listed as compound 2e, 100 mg/kg): 35.32%; Effect on tumor volume compared to the model group (H22 transplanted tumor; 50, 100 mg/kg, p < 0.05, p < 0.01): significantly reduce; VEGF level (VEGF; n = 6, 25 mg/kg): 158.32 ± 15.97 ^##, * pg/mL; VEGF level (VEGF; n = 6, 50 mg/kg): 127.62 ± 17.46 ^##, ** pg/mL; VEGF level (VEGF; n = 6, 100 mg/kg): 114.67 ± 15.42 pg/mL; IC50 (HepG2 cells; [8]): 11.3 ± 0.43 µM; ALT ([1]; mouse, in vivo, 25 mg/kg): 43.62 ± 5.15 ^##, ** IU/L; AST ([1]; mouse, in vivo, 25 mg/kg): 42.51 ± 5.22 ^##, ** IU/L; CRE ([1]; mouse, in vivo, 25 mg/kg): 31.17 ± 9.03 µmol/L; ALT ([1]; mouse, in vivo, 50 mg/kg): 42.31 ± 5.00 ^##, ** IU/L; AST ([1]; mouse, in vivo, 50 mg/kg): 38.69 ± 6.43 ^##, ** IU/L; BUN ([1]; mouse, in vivo, 50 mg/kg): 11.06 ± 2.16 mmol/L; CRE ([1]; mouse, in vivo, 50 mg/kg): 28.95 ± 9.16 µmol/L; ALT ([1]; mouse, in vivo, 100 mg/kg): 35.37 ± 3.32 ^##, ** IU/L; AST ([1]; mouse, in vivo, 100 mg/kg): 31.47 ± 4.48 ^#, ** IU/L; BUN ([1]; mouse, in vivo, 100 mg/kg): 10.32 ± 2.77 mmol/L; CRE ([1]; mouse, in vivo, 100 mg/kg): 26.93 ± 10.60 µmol/L; IL-2 level (IL-2; n = 6, 25 mg/kg): 111.13 ± 13.28 pg/mL; IL-2 level (IL-2; n = 6, 50 mg/kg): 136.86 ± 22.66 pg/mL; IL-2 level (IL-2; n = 6, 100 mg/kg): 174.11 ± 28.90 pg/mL; TNF-α level (TNF-α; n = 6, 25 mg/kg): 287.01 ± 39.10 pg/mL; TNF-α level (TNF-α; n = 6, 50 mg/kg): 321.97 ± 55.57 pg/mL; TNF-α level (TNF-α; n = 6, 100 mg/kg): 358.35 ± 45.19 pg/mL

With `CC(C)(O)C1CCC(C)(C2CCC3(C)C2C(O)CC2C4(C)CCC(O)C(C)(C)C4C(O)CC23C)O1` (stereo not drawn) [Ocotillol] as the compound, how does the absorption into blood [2] read?
Its absorption into blood is “poor”.

And the systemic exposure [2]?
Its systemic exposure is “low”.

And the t1/2 [2]?
Its t1/2 is “long”.

And the “plasma protein binding rates” value [3]?
Its value is “high”.

And the IC50 (HepG2 cells; [8])?
The IC50 was 92.7 ± 3.07 µM.

Which “Liver and kidney cell morphology (H&E)” value [4] does the source give for `O=P1(N(CCCl)CCCl)NCCCO1` (stereo not drawn) [Cyclophosphamide, reference compound] here?
Its value is “many vacuoles and edema”.

And the “Inhibitory Rate (tumor inhibition rate, TIR)” value (H22 transplanted tumor; [9])?
Its value is 49.69%.

And the “Tumor Weight” value (H22 transplanted tumor; [9])?
The value was 0.81 ± 0.18 g.

What about the “Effect on tumor volume compared to the model group” value (H22 transplanted tumor; CTX 20 mg/kg, p < 0.01) of the same compound?
The value was “significantly reduce”.

What about the VEGF level (VEGF; n = 6, 20 mg/kg) of the same compound?
The VEGF level was 103.43 ± 14.00 pg/mL.

What about the “Body weight D14” value [5, 9] of the same compound?
The value was 32.76 ± 3.14 g.

And the “Increase of Body Weight” value [5, 9]?
Its value is 11.56 ± 3.23 g.

What about the “Kidney Index” value [5, 9] of the same compound?
Its value is 13.27 ± 1.96 mg/g.

And the “Liver Index” value [5, 9]?
The value was 51.54 ± 7.69 mg/g.

What about the “Body weight D1” value ([5]; D1, 20 mg/kg group) of the same compound?
The value was 21.20 ± 1.71 g.

And the IC50 (HepG2 cells; HepG2, 48 h)?
The IC50 was 9.18 ± 0.34 µM.

What about the ALT [1, 10] of the same compound?
The ALT was 50.61 ± 3.22 ^##, ** IU/L.

What about the AST [1, 10] of the same compound?
Its AST is 53.47 ± 5.04 ^##, ** IU/L.

And the BUN [1, 10]?
The BUN was 14.23 ± 2.38 ^##, * mmol/L.

What about the CRE [1, 10] of the same compound?
The CRE was 32.86 ± 7.74 µmol/L.

What about the IL-2 level (IL-2; n = 6, 20 mg/kg) of the same compound?
The IL-2 level was 110.52 ± 17.54 pg/mL.

What about the TNF-α level (TNF-α; n = 6, 20 mg/kg) of the same compound?
Its TNF-α level is 207.47 ± 23.37 ^##, ** pg/mL.
